Measured values: PubChem BioAssay AID250 (DTP/NCI, 2004)
Several values for one entry are separate records, joined by “and”; a condition that tells them apart may be missing. Equal values may be shown once. Toxic doses and inconclusive results are not listed.

Tested on: BDF1 mice, L1210 leukemia sc, survival T/C
Experiment: NCI In Vivo Anticancer Drug Screen. Data for tumor model L1210 Leukemia (subcutaneous) in B6D2F1 (BDF1) mice
Conditions: higher = longer survival
Method in brief: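 Read-out: T/C ratio, i.e. survival or tumor size in treated mice over that in vehicle-treated controls, from mice bearing transplantable tumors.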

[1] = endpoint: median survival time, dose: 5.0 mg/kg/injection, schedule: Q01DX Z (sc), vehicle: methylcellulose (MC)
[2] = endpoint: median survival time, dose: 8.4 mg/kg/injection, schedule: Q01DX Z (sc), vehicle: methylcellulose (MC)
[3] = endpoint: median survival time, dose: 14.0 mg/kg/injection, schedule: Q01DX Z (sc), vehicle: methylcellulose (MC)
[4] = endpoint: median survival time, dose: 23.0 mg/kg/injection, schedule: Q01DX Z (sc), vehicle: methylcellulose (MC)
[5] = endpoint: median survival time, dose: 39.0 mg/kg/injection, schedule: Q01DX Z (sc), vehicle: methylcellulose (MC)
[6] = endpoint: median survival time, dose: 65.0 mg/kg/injection, schedule: Q01DX Z (sc), vehicle: methylcellulose (MC)
[7] = endpoint: median survival time, dose: 108.0 mg/kg/injection, schedule: Q01DX Z (sc), vehicle: methylcellulose (MC)
[8] = endpoint: median survival time, dose: 180.0 mg/kg/injection, schedule: Q01DX Z (sc), vehicle: methylcellulose (MC)
[9] = endpoint: median survival time, dose: 180.0 mg/kg/injection, schedule: Q01DX Z (sc), vehicle: carboxymethylcellulose (CMC)
[10] = endpoint: median survival time, dose: 65.0 mg/kg/injection, schedule: Q01DX Z (sc), vehicle: saline
[11] = endpoint: median survival time, dose: 108.0 mg/kg/injection, schedule: Q01DX Z (sc), vehicle: saline
[12] = endpoint: median survival time, dose: 23.0 mg/kg/injection, schedule: Q01DX Z (sc), vehicle: carboxymethylcellulose (CMC)
[13] = endpoint: median survival time, dose: 39.0 mg/kg/injection, schedule: Q01DX Z (sc), vehicle: carboxymethylcellulose (CMC)
[14] = endpoint: median survival time, dose: 65.0 mg/kg/injection, schedule: Q01DX Z (sc), vehicle: carboxymethylcellulose (CMC)

COc1cc(NS(C)(=O)=O)ccc1Nc1c2ccccc2nc2ccccc12
T/C (endpoint: mean survival time, dose: 0.75 mg/kg/injection, schedule: Q01DX009 (ip), vehicle: saline): 97 % of control | T/C (endpoint: mean survival time, dose: 1.25 mg/kg/injection, schedule: Q01DX009 (ip), vehicle: saline): 100 % of control | T/C (endpoint: mean survival time, dose: 1.5 mg/kg/injection, schedule: Q01DX009 (ip), vehicle: saline): 99 % of control | T/C (endpoint: mean survival time, dose: 2.5 mg/kg/injection, schedule: Q01DX009 (ip), vehicle: saline): 104 % of control | T/C (endpoint: mean survival time, dose: 3.0 mg/kg/injection, schedule: Q01DX009 (ip), vehicle: saline): 110 % of control | T/C (endpoint: mean survival time, dose: 5.0 mg/kg/injection, schedule: Q01DX009 (ip), vehicle: saline): 103 % of control and 112 % of control | T/C (endpoint: mean survival time, dose: 6.0 mg/kg/injection, schedule: Q01DX009 (ip), vehicle: saline): 110 % of control | T/C (endpoint: mean survival time, dose: 10.0 mg/kg/injection, schedule: Q01DX009 (ip), vehicle: saline): 100 % of control | T/C (endpoint: median survival time, dose: 0.5 mg/kg/injection, schedule: Q01DX009 (ip), vehicle: other): 103 % of control | T/C (endpoint: median survival time, dose: 1.0 mg/kg/injection, schedule: Q01DX009 (ip), vehicle: other): 102 % of control | T/C (endpoint: median survival time, dose: 2.0 mg/kg/injection, schedule: Q01DX009 (ip), vehicle: other): 103 % of control | T/C (endpoint: median survival time, dose: 4.0 mg/kg/injection, schedule: Q01DX009 (ip), vehicle: other): 118 % of control

Oc1cc(CN(CCCl)CCCl)c(O)cc1CN(CCCl)CCCl
T/C (endpoint: median survival time, dose: 3.0 mg/kg/injection, schedule: Q01DX Z (sc), vehicle: methylcellulose (MC)): 100 % of control | T/C [1]: 105 % of control | T/C [2]: 110 % of control | T/C [3]: 100 % of control | T/C [4]: 105 % of control | T/C [5]: 110 % of control | T/C [6]: 110 % of control | T/C [7]: 120 % of control | T/C [8]: 120 % of control

O=C1C(NC(=O)C2CCCCC2)=C(N2CC2)C(=O)C(NC(=O)C2CCCCC2)=C1N1CC1
T/C [9]: 100 % of control | T/C (endpoint: median survival time, dose: 300.0 mg/kg/injection, schedule: Q01DX Z (sc), vehicle: carboxymethylcellulose (CMC)): 100 % of control | T/C (endpoint: median survival time, dose: 500.0 mg/kg/injection, schedule: Q01DX Z (sc), vehicle: carboxymethylcellulose (CMC)): 100 % of control | T/C (endpoint: median survival time, dose: 833.0 mg/kg/injection, schedule: Q01DX Z (sc), vehicle: carboxymethylcellulose (CMC)): 100 % of control | T/C (endpoint: median survival time, dose: 1388.0 mg/kg/injection, schedule: Q01DX Z (sc), vehicle: carboxymethylcellulose (CMC)): 100 % of control

c1ccc2[nH]cnc2c1
T/C (endpoint: median survival time, dose: 14.0 mg/kg/injection, schedule: Q01DX Z (sc), vehicle: other): 100 % of control | T/C (endpoint: median survival time, dose: 300.0 mg/kg/injection, schedule: Q01DX Z (sc), vehicle: other): 100 % of control | T/C (endpoint: median survival time, dose: 500.0 mg/kg/injection, schedule: Q01DX Z (sc), vehicle: other): 100 % of control

CCC(=O)O[C@H]1CC[C@H]2[C@@H]3CC[C@H]4CC(=O)[C@H](C)C[C@]4(C)[C@H]3CC[C@]12C
T/C [4]: 100 % of control | T/C [6]: 100 % of control | T/C [7]: 100 % of control | T/C [8]: 100 % of control

Cc1cc(N)c2cc(NC(=O)CCCCCCCCC(=O)Nc3ccc4nc(C)cc(N)c4c3)ccc2n1
T/C [10]: 91 % of control | T/C [11]: 91 % of control | T/C (endpoint: median survival time, dose: 130.0 mg/kg/injection, schedule: Q01DX Z (sc), vehicle: saline): 91 % of control | T/C (endpoint: median survival time, dose: 180.0 mg/kg/injection, schedule: Q01DX Z (sc), vehicle: saline): 91 % of control | T/C (endpoint: median survival time, dose: 216.0 mg/kg/injection, schedule: Q01DX Z (sc), vehicle: saline): 91 % of control | T/C (endpoint: median survival time, dose: 300.0 mg/kg/injection, schedule: Q01DX Z (sc), vehicle: saline): 91 % of control | T/C (endpoint: median survival time, dose: 360.0 mg/kg/injection, schedule: Q01DX Z (sc), vehicle: saline): 91 % of control | T/C (endpoint: median survival time, dose: 500.0 mg/kg/injection, schedule: Q01DX Z (sc), vehicle: saline): 95 % of control | T/C (endpoint: median survival time, dose: 600.0 mg/kg/injection, schedule: Q01DX Z (sc), vehicle: saline): 91 % of control | T/C (endpoint: median survival time, dose: 1000.0 mg/kg/injection, schedule: Q01DX Z (sc), vehicle: saline): 95 % of control

CN(C)N=Nc1ccc(CCCC(=O)NN)cc1
T/C [12]: 109 % of control | T/C [13]: 118 % of control | T/C [14]: 109 % of control | T/C (endpoint: median survival time, dose: 108.0 mg/kg/injection, schedule: Q01DX Z (sc), vehicle: carboxymethylcellulose (CMC)): 109 % of control | T/C [9]: 113 % of control

Cn1c(O)c(N=NC(N)=S)c2ccccc21
T/C [1]: 100 % of control | T/C [2]: 100 % of control | T/C [3]: 100 % of control | T/C [4]: 100 % of control | T/C [5]: 100 % of control | T/C [6]: 100 % of control | T/C [7]: 100 % of control | T/C [8]: 100 % of control

CN(N=O)C(=O)N[C@@H](C=O)[C@@H](O)[C@H](O)[C@H](O)CO
T/C (endpoint: median survival time, dose: 25.0 mg/kg/injection, schedule: Q01DX009 (sc), vehicle: other): 123 % of control

CCC1=C(c2ccc(OC)cc2)CCC(C(=O)O)C1C (configuration not stated)
T/C (endpoint: median survival time, dose: 14.0 mg/kg/injection, schedule: Q01DX Z (sc), vehicle: steriod suspending solution): 105 % of control | T/C (endpoint: median survival time, dose: 23.0 mg/kg/injection, schedule: Q01DX Z (sc), vehicle: steriod suspending solution): 100 % of control | T/C (endpoint: median survival time, dose: 39.0 mg/kg/injection, schedule: Q01DX Z (sc), vehicle: steriod suspending solution): 105 % of control | T/C (endpoint: median survival time, dose: 65.0 mg/kg/injection, schedule: Q01DX Z (sc), vehicle: steriod suspending solution): 100 % of control | T/C (endpoint: median survival time, dose: 108.0 mg/kg/injection, schedule: Q01DX Z (sc), vehicle: steriod suspending solution): 100 % of control and 111 % of control | T/C (endpoint: median survival time, dose: 180.0 mg/kg/injection, schedule: Q01DX Z (sc), vehicle: steriod suspending solution): 100 % of control and 105 % of control | T/C (endpoint: median survival time, dose: 300.0 mg/kg/injection, schedule: Q01DX Z (sc), vehicle: steriod suspending solution): 100 % of control and 111 % of control | T/C (endpoint: median survival time, dose: 500.0 mg/kg/injection, schedule: Q01DX Z (sc), vehicle: steriod suspending solution): 111 % of control | T/C (endpoint: median survival time, dose: 833.0 mg/kg/injection, schedule: Q01DX Z (sc), vehicle: steriod suspending solution): 100 % of control

CC(=O)c1ccc(NC(=O)N(CCCl)N=O)cc1
T/C [13]: 183 % of control | T/C [14]: 211 % of control

COc1ccc2c(Nc3ccc(NS(C)(=O)=O)cc3)c3ccccc3nc2c1
T/C (endpoint: mean survival time, dose: 6.25 mg/kg/injection, schedule: Q01DX009 (sc), vehicle: saline): 109 % of control

CC(C)Sc1ncnc2nc[nH]c12
T/C (endpoint: median survival time, dose: 38.9 mg/kg/injection, schedule: Q01DX Z (sc), vehicle: methylcellulose (MC)): 110 % of control | T/C (endpoint: median survival time, dose: 64.8 mg/kg/injection, schedule: Q01DX Z (sc), vehicle: methylcellulose (MC)): 155 % of control | T/C [7]: 155 % of control

S=P(N1CCCCCC1)(N1CC1)N1CC1
T/C (endpoint: median survival time, dose: 4.7 mg/kg/injection, schedule: Q01DX Z (sc), vehicle: saline): 100 % of control | T/C (endpoint: median survival time, dose: 7.8 mg/kg/injection, schedule: Q01DX Z (sc), vehicle: saline): 111 % of control | T/C (endpoint: median survival time, dose: 8.4 mg/kg/injection, schedule: Q01DX Z (sc), vehicle: saline): 111 % of control | T/C (endpoint: median survival time, dose: 13.0 mg/kg/injection, schedule: Q01DX Z (sc), vehicle: saline): 100 % of control | T/C (endpoint: median survival time, dose: 14.0 mg/kg/injection, schedule: Q01DX Z (sc), vehicle: saline): 111 % of control | T/C (endpoint: median survival time, dose: 21.6 mg/kg/injection, schedule: Q01DX Z (sc), vehicle: saline): 111 % of control | T/C (endpoint: median survival time, dose: 23.0 mg/kg/injection, schedule: Q01DX Z (sc), vehicle: saline): 111 % of control | T/C (endpoint: median survival time, dose: 36.0 mg/kg/injection, schedule: Q01DX Z (sc), vehicle: saline): 116 % of control | T/C (endpoint: median survival time, dose: 39.0 mg/kg/injection, schedule: Q01DX Z (sc), vehicle: saline): 122 % of control | T/C (endpoint: median survival time, dose: 60.0 mg/kg/injection, schedule: Q01DX Z (sc), vehicle: saline): 166 % of control | T/C [10]: 116 % of control | T/C (endpoint: median survival time, dose: 100.0 mg/kg/injection, schedule: Q01DX Z (sc), vehicle: saline): 161 % of control | T/C [11]: 155 % of control

O=NN(CCF)C(=O)NC1CCCCC1
T/C (endpoint: median survival time, dose: 8.4 mg/kg/injection, schedule: Q01DX Z (sc), vehicle: carboxymethylcellulose (CMC)): 289 % of control | T/C (endpoint: median survival time, dose: 14.0 mg/kg/injection, schedule: Q01DX Z (sc), vehicle: carboxymethylcellulose (CMC)): 347 % of control | T/C (endpoint: median survival time, dose: 23.0 mg/kg/injection, schedule: Q01DX Z (oral), vehicle: carboxymethylcellulose (CMC)): 321 % of control | T/C [12]: 305 % of control | T/C (endpoint: median survival time, dose: 39.0 mg/kg/injection, schedule: Q01DX Z (oral), vehicle: carboxymethylcellulose (CMC)): 242 % of control | T/C (endpoint: median survival time, dose: 65.0 mg/kg/injection, schedule: Q01DX Z (oral), vehicle: carboxymethylcellulose (CMC)): 163 % of control | T/C (endpoint: median survival time, dose: 108.0 mg/kg/injection, schedule: Q01DX Z (oral), vehicle: carboxymethylcellulose (CMC)): 121 % of control
